Assays:
[1] = target: T1, GD2.28z.FKBP CAR (Homo sapiens, UniProt P62942, E32G/F37V/K106E/R72G); test: Regulation of GD2.28z.FKBP CAR surface expression by shield-1 (FACS); type: cell-based; details: adding or subtracting S1 in culture medium
T1 construct: expressed in transfected cells; host or cells: T cells, lentiviral transduction
Excerpt: FIG. 1: Characterization of the GD2.28z.FKBP CAR. T cells were transduced with lentivirus encoding the GD2.28z.FKBP CAR on day 1 after activation and subsequently cultured with various concentrations of shield-1 in the growth medium. On day 7, CAR expression was quantified via FACS.

[2] = tested on: HA-GD2.28z.FKBP CAR T cells; test: Western blot of CAR CD3-zeta phosphorylation (tonic signaling); type: cell-based, human; details: cultured in the absence of S1 (CAR Always OFF)
Excerpt: This phenotype was also reversible, as indicated by the lack of CD3-zeta phosphorylation in DD-CAR T cells that were initially cultured with S1, but then had drug removed on day 7 of the culture (FIG. 16, CAR OFF D7).

[3] = tested on: HA-GD2.28z.FKBP; test: Exhaustion marker co-expression on HA-GD2.28z.FKBP CAR T cells; type: cell-based, human; details: upon removal of shield-1 from the culture medium
Procedure: When assessing IL-2 and IFNγ, cells were surface stained, then fixed and permeablized (eBioscience) prior to incubation with intracellular antibodies.
T cells were removed from culture, fixed in 2% PFA for 10 minutes at room temperature, pelleted and frozen at −80C. Upon thawing, each sample was barcoded with a 20-plex Pd harcoding kit (FIuidigm). Cell samples were then pooled and stained for surface marker expression with heavy-metal conjugated antibodies for 30 minutes at room temperature. Cells were then permeablized in methanol and subsequently stained with heavy metal-conjugated anti-human T-bet (4B10, Biolegend) and anti-human Blimp-1 (ROS195G, Biolegend) for 30 minutes at room temperature. Samples were run on a Helios mass cytometer (Fluidigm) and analyses were complete using Cytobank online software.
It was next determined whether the prevention or reversal of tonic signaling in HA-GD2.28z.FKBP-expressing CAR T cells altered their exhaustion phenotype.

[4] = tested on: HA-GD2.28z.FKBP CAR T cells; test: Sorted PD-1/TIM-3/LAG-3 triple positive HA-GD2.28z.FKBP CAR T cells re-cultured with or without S1 (FACS, co-culture); type: cell-based, human
Excerpt: Functional studies by several groups, including our lab have verified that co-expression of PD-1, TIM-3, and LAG-3 (triple positive, TP) denotes an exhausted cell subset that is highly dysfunctional. We thus sought to analyze whether cessation of tonic signaling in this cell subset could reverse their phenotype and restore their ability to secrete IL-2 in response to tumor antigen. […] On day 10 post-activation, HA-GD2.28z.FKBP CAR T cells that had experienced continuous S1 treatment were sorted in order to isolate a pure PD-1/TIM-3/LAG-3 exhausted population. “Triple positive” exhausted cells were then re-cultured either with or without S1 to test whether removal of tonic signaling could restore their function. FACS and co-culture assays were conducted 4 days later.

[5] = target: T2, Her2.28z.FKBP (Homo sapiens, UniProt P62942, E32G/F37V/K106E/R72G); test: Regulation of Her2.28z.FKBP CAR expression by shield-1 (protein L stain, FACS); type: cell-based; details: 0.1 uM or 1 uM, 24 hours after addition of drug
T2 construct: expressed in transfected cells; host or cells: T cells, lentiviral transduction
T2 sequence (P62942 2-108 E32G/F37V/R72G/K106E): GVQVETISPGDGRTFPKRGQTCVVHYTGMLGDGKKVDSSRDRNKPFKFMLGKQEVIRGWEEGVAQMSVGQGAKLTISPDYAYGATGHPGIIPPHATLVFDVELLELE
Procedure: The FKBP12 DD domain was fused to the far c-terminus of the Her2.28z CAR. T cells were transduced with lentivirus to express the Her2.28z.FKBP. […] 24 hours after addition of drug, CAR T cells were stained with protein L and CAR expression was assessed via FACS. Both the percentage of CAR+ cells (quantified in the histograms) as well as CAR MFI are increased upon incubation with either 0.1 uM or 1 uM Shield-1 (S1).

[6] = tested on: GD2.28z.FKBP CAR T cells; test: Exhaustion phenotype of GD2.28z.FKBP CAR T cells after S1 removal (FACS); type: cell-based, human
Excerpt: Since tonic signaling is highly dependent upon GD2-CAR receptor levels, precise control of CAR expression levels also precisely regulates levels of tonic signaling. Drug regulated control of levels of CAR expression therefore also allowed modulation of the duration and intensity of GD2.28z tonic signaling. […] This is most well illustrated by measuring levels of PD-1/TIM-3/LAG-3 triple expressing cell which is highly specific for dysfunctional, exhausted T cells. […] Similar results were obtained on day 14 for cells in which S1 was removed from culture medium on day 7 or day 10 (not shown).

[7] = tested on: GD2.28z.FKBP CAR T cells; test: IL-2 secretion of GD2.28z.FKBP CAR T cells in co-culture with Nalm6 cells expressing GD2 (ELISA); type: cell-based, human
Procedure: Because phenotypic markers may not be entirely predictive of T cell function, we also performed functional experiments on CAR T cells provided transient drug exposure in culture. CAR T cells were washed, resuspended in media containing S1, and mixed at a 1:1 ratio with Nalm6 leukemic cells stably expressing surface GD2. Culture supernatants were harvested approximately 24 hours later and cytokine levels were evaluated via ELISA.
Similar to GD2.28z CAR that lacks a destabilization domain and therefore have persistent high levels of CAR signaling, cells expressing the GD2.28z.FKBP CAR that experienced continuous drug treatment (FIG. 4, grey bars) secreted minimal amounts of IL-2 on both day 10 and day 14 post-activation, consistent with T cell exhaustion.

[8] = tested on: NALM6-GL-GD2; details: mice that received TMP
Procedure: At day 7 post-engraftment, 1-5×10^6 GD2.28z.DHFR or HA-GD2.28z.DHFR CAR+ T cells were infused intravenously.
Mice were then injected with either stabilizing drug or vehicle control every day thereafter.
To test this, antigen-bearing tumor cells were engrafted into NSG mice and subsequently infused 2-5E6 HA-GD2.28z.DHFR-expressing T cells. Mice were dosed with TMP everyday thereafter.

[9] = S1 removed day 7 or 10, read day 14, vs continuous S1

T1 sequence (P62942 2-108 E32G/F37V/R72G/K106E): as above

Molecule: CC[C@H](C(=O)N1CCCC[C@H]1C(=O)O[C@H](CCc1ccc(OC)c(OC)c1)c1cccc(OCCN2CCOCC2)c1)c1cc(OC)c(OC)c(OC)c1 [shield-1]
- regulation of CAR surface expression [1]: rapidly and dose-dependently regulated
- CD3-zeta phosphorylation [2]: absent
- co-expression of canonical exhaustion markers [3]: rapidly downregulated
- expression of exhaustion markers ([4]; 4 days without S1, CD4+ and CD8+ CAR T cells): far less expression of exhaustion markers
- increase in IL-2 secretion ([4]; removal of S1 vs continuous S1 days 10-14): 2 fold
- CAR MFI [5]: increased
- percentage of CAR+ cells [5]: increased
- apoptosis (annexin V staining) [6, 9]: prevention of apoptosis
- memory markers (CD62L) [6, 9]: maintenance of memory markers
- canonical exhaustion marker expression ([6]; S1 removed day 7 post-activation, read day 10): reverses canonical exhaustion marker expression to control levels
- IL-2 secretion ([7]; S1 removed day 7, vs continuous S1): superior IL-2 secretion
- IL-2 secretion of exhausted T cells after rest ([7]; S1 removed day 10, rested 4 days, day 14 ELISA): reinvigorated
- augmentation of IL-2 secretion ([7]; cultured without S1, S1 added back just prior to co-culture, vs continuous S1): 5-10 fold

Molecule: COc1cc(Cc2cnc(N)nc2N)cc(OC)c1OC [trimethoprim]
- CD69 surface expression of CAR T cells [8]: higher CD69 surface expression

Molecule: nivolumab: anti-PD-1 checkpoint inhibitor
- IL-2 secretion ([7]; continuous S1 + nivolumab, day 10, sustained until day 14): only modest augmentation of IL-2 secretion

Reference: patent publication US11938153B2, “Methods of treating T cell exhaustion by inhibiting or modulating T cell receptor signaling” (THE BOARD OF TRUSTEES OF THE LELAND STANFORD JUNIOR …, priority 2017, dated 2024)
